Legend:
Details in all cases: incubation time: 72 h
CAL-148 [1] = test: normalised response (% of control), CellTox Green; higher = less cell death (100 = DMSO, 0 = benzethonium chloride kill control)
Method in brief: (§1)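 For each plate, 0.1 % DMSO was set to 100 and a positive kill control to 0. Breast cancer cell lines (20 µl suspension) were seeded into 384-well plates already holding compound at 5 concentrations in 10-fold steps over a 10,000-fold range chosen per compound, and incubated for 72 h. CellTox Green fluorescence at 485/520 nm was read before CellTiter-Glo luminescence, which followed 10 min at room temperature. Each value is the normalised signal at one concentration.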

HCC1599 [2] = test: as above
Method in brief: as §1

BT-474 = test: normalised response (% of control), CellTiter-Glo; higher = more viable cells (100 = DMSO, 0 = benzethonium chloride kill control)
Method in brief: as §1

BT-549 = test: as above
Method in brief: as §1

CAL-120 = test: as above
Method in brief: as §1

CAL-148 [3] = test: as above
Method in brief: as §1

CAL-51 = test: as above
Method in brief: as §1

CAL-85-1 = test: as above
Method in brief: as §1

HCC1143 = test: as above
Method in brief: as §1

HCC1599 [4] = test: as above
Method in brief: as §1

HCC1937 = test: as above
Method in brief: as §1

HDQ-P1 = test: as above
Method in brief: as §1

Hs578T = test: as above
Method in brief: as §1

MCF-10A = test: as above
Method in brief: as §1

MDA-MB-231 = test: as above
Method in brief: as §1

MDA-MB-436 = test: as above
Method in brief: as §1

MDA-MB-453 = test: as above
Method in brief: as §1

MDA-MB-468 = test: as above
Method in brief: as §1

MFM-223 = test: as above
Method in brief: as §1

SK-BR-3 = test: as above
Method in brief: as §1

| SMILES | normalised response (CAL-148 [1]) | normalised response (HCC1599 [2]) | normalised response (BT-474) | normalised response (BT-549) | normalised response (CAL-120) | normalised response (CAL-148 [3]) | normalised response (CAL-51) | normalised response (CAL-85-1) | normalised response (HCC1143) | normalised response (HCC1599 [4]) | normalised response (HCC1937) | normalised response (HDQ-P1) | normalised response (Hs578T) | normalised response (MCF-10A) | normalised response (MDA-MB-231) | normalised response (MDA-MB-436) | normalised response (MDA-MB-453) | normalised response (MDA-MB-468) | normalised response (MFM-223) | normalised response (SK-BR-3) |
| --- | --- | --- | --- | --- | --- | --- | --- | --- | --- | --- | --- | --- | --- | --- | --- | --- | --- | --- | --- | --- |
| CCN(CC)CCOc1ccc(C(=C(Cl)c2ccccc2)c2ccccc2)cc1 [Clomifene] (1000 nM) | 104% | 100% | 98.5% | 95.5% | 102% | 106% | 95.2% | 94.2% | 102% | 92.7% | 93.8% | 95.9% | 94.3% | 101% | 99.2% | 104% | 94.2% | 103% | 100% | 101% |
| CC(C)C(=O)Nc1ccc([N+](=O)[O-])c(C(F)(F)F)c1 [Flutamide] (1000 nM) | 104% | 94.6% | 103% | 103% | 94.7% | 99.9% | 93.2% | 93.5% | 100% | 111% | 96.2% | 101% | 100% | 99.3% | 101% | 98.1% | 99.7% | 96.9% | 99.8% | 93.9% |
| COc1cc2c(Oc3ccc(NC(=O)C4(C(=O)Nc5ccc(F)cc5)CC4)cc3F)ccnc2cc1OCCCN1CCOCC1 [Foretinib] (100 nM) | 102% | 99.2% | 92.3% | 114% | 93.9% | 102% | 99.5% | 98% | 93.8% | 89.8% | 98.1% | 95.5% | 96.1% | 95.1% | 87% | 110% | 85.6% | 105% | 75.7% | 107% |
| NC(=O)NO [Hydroxyurea] (10000 nM) | 98.2% | 103% | 92.7% | 90.8% | 95.7% | 101% | 45.2% | 98.2% | 105% | 111% | 98.4% | 100% | 109% | 109% | 103% | 97.7% | 114% | 107% | 105% | 110% |
| O=NN(CCCl)C(=O)NC1CCCCC1 [Lomustine] (1000 nM) | 106% | 93.7% | 101% | 107% | 100% | 95.3% | 112% | 94.1% | 98.1% | 128% | 102% | 102% | 101% | 105% | 98.5% | 104% | 113% | 104% | 98% | 94.6% |
| O=C(O)CC[C@H]1CC[C@@](c2cc(F)ccc2F)(S(=O)(=O)c2ccc(Cl)cc2)CC1 [MK-0752] (100 nM) | 59% | 111% | 98.7% | 91.6% | 95.6% | 95.4% | 113% | 92% | 108% | 109% | 98.5% | 95.6% | 103% | 109% | 104% | 104% | 108% | 107% | 109% | 109% |
| NC1(c2ccc(-c3nc4ccn5c(=O)[nH]nc5c4cc3-c3ccccc3)cc2)CCC1 [MK-2206] (100 nM) | 109% | 108% | 97.4% | 90.3% | 99.8% | 97% | 95.1% | 109% | 98.2% | 104% | 96.6% | 99.2% | 97.2% | 107% | 103% | 108% | 76.5% | 94.6% | 98.5% | 83.5% |
| NC(=O)c1cccc2cn(-c3ccc([C@@H]4CCCNC4)cc3)nc12 [MK-4827] (1000 nM) | 80.5% | 99.2% | 109% | 97.4% | 101% | 97.6% | 95.2% | 105% | 104% | 107% | 105% | 102% | 102% | 106% | 109% | 79.3% | 140% | 101% | 106% | 98.8% |
| O=C(c1cc(Cc2n[nH]c(=O)c3ccccc23)ccc1F)N1CCN(C(=O)C2CC2)CC1 [Olaparib] (1000 nM) | 92.9% | 94.9% | 87.6% | 94.9% | 92.3% | 83.1% | 98.5% | 101% | 94.8% | 101% | 95.6% | 96.6% | 97.5% | 92.3% | 88.7% | 75.2% | 132% | 91.8% | 101% | 92% |
| CO[C@H](C(=O)[C@@H](O)[C@@H](C)O)[C@@H]1Cc2cc3cc(O[C@H]4C[C@@H](O[C@@H]5C[C@@H](O)[C@H](O)[C@@H](C)O5)[C@H](O)[C@@H](C)O4)c(C)c(O)c3c(O)c2C(=O)[C@H]1O[C@H]1C[C@@H](O[C@@H]2C[C@@H](O)[C@@H](O[C@@H]3C[C@](C)(O)[C@H](O)[C@@H](C)O3)[C@@H](C)O2)[C@H](O)[C@@H](C)O1 [Plicamycin] (1000 nM) | 109% | 94.9% | 91% | 89.5% | 105% | 104% | 86.9% | 100% | 101% | 120% | 90% | 102% | 104% | 110% | 94.2% | 103% | 105% | 91% | 104% | 106% |

— the supplement of paper PMC4862054
